In brackets after ≈: the same amount, converted by molar mass.
Tests used:
[1] = Iron chelating activity of the compound assessed as stability constant of Fe3+-compound complex after 5 min by spectrophotometric titration analysis; assay type: physicochemical
Pseudomonas aeruginosa = test: Antimicrobial activity against Pseudomonas aeruginosa assessed as growth inhibition incubated for 2 hr measured after 24 hr by turbidity based assay; assay type: functional
Escherichia coli = test: Antimicrobial activity against Escherichia coli assessed as growth inhibition incubated for 2 hr measured after 24 hr by turbidity based assay; assay type: functional
Bacillus subtilis = test: Antimicrobial activity against Bacillus subtilis assessed as growth inhibition incubated for 2 hr measured after 24 hr by turbidity based assay; assay type: functional
Bacillus cereus = test: Antimicrobial activity against Bacillus cereus assessed as growth inhibition incubated for 2 hr measured after 24 hr by turbidity based assay; assay type: functional
Staphylococcus aureus = test: Antimicrobial activity against Staphylococcus aureus assessed as growth inhibition incubated for 2 hr measured after 24 hr by turbidity based assay; assay type: functional
[2] = Iron chelating activity of the compound assessed as stability constant of Fe3+-compound complex; assay type: physicochemical

## O=C(NCCN(CCNC(=O)c1c(O)c(=O)ccn1CCOCCO)CCNC(=O)c1c(O)c(=O)ccn1CCOCCO)c1c(O)c(=O)ccn1CCOCCO
[1]
  log K: 32
Pseudomonas aeruginosa
  MIC: 40 µg/mL (≈ 48.7 µM)
Escherichia coli
  MIC: 40 µg/mL (≈ 48.7 µM)
Bacillus subtilis
  MIC: 40 µg/mL (≈ 48.7 µM)
Bacillus cereus
  MIC: 40 µg/mL (≈ 48.7 µM)
Staphylococcus aureus
  MIC: 40 µg/mL (≈ 48.7 µM)

## CCn1ccc(=O)c(O)c1C(=O)NCCN(CCNC(=O)c1c(O)c(=O)ccn1CC)CCNC(=O)c1c(O)c(=O)ccn1CC
[1]
  log K: 32.6
Pseudomonas aeruginosa
  MIC: 16 µg/mL (≈ 24.9 µM)
Escherichia coli
  MIC: 24 µg/mL (≈ 37.4 µM)
Bacillus subtilis
  MIC: 40 µg/mL (≈ 62.3 µM)
Bacillus cereus
  MIC: 40 µg/mL (≈ 62.3 µM)
Staphylococcus aureus
  MIC: 40 µg/mL (≈ 62.3 µM)

## O=C(O)C(NCCNC(C(=O)O)c1ccccc1O)c1ccccc1O (centres undefined)
[2]
  log K: 34

## O=C(NCCN(CCNC(=O)c1[nH]ccc(=O)c1O)CCNC(=O)c1[nH]ccc(=O)c1O)c1[nH]ccc(=O)c1O
[1]
  log K: 30.7
Pseudomonas aeruginosa
  MIC: 24 µg/mL (≈ 43 µM)
Escherichia coli
  MIC: 80 µg/mL (≈ 143 µM)
Bacillus subtilis
  MIC: 40 µg/mL (≈ 71.7 µM)
Bacillus cereus
  MIC: 40 µg/mL (≈ 71.7 µM)
Staphylococcus aureus
  MIC: 40 µg/mL (≈ 71.7 µM)

## CC(=O)N(O)CCCCCNC(=O)CCC(=O)N(O)CCCCCNC(=O)CCC(=O)N(O)CCCCCN [DEFEROXAMINE]
[2]
  log K: 30.4

## CCCCn1ccc(=O)c(O)c1C(=O)NCCN(CCNC(=O)c1c(O)c(=O)ccn1CCCC)CCNC(=O)c1c(O)c(=O)ccn1CCCC
Pseudomonas aeruginosa
  MIC: 40 µg/mL (≈ 55.1 µM)
Escherichia coli
  MIC: 40 µg/mL (≈ 55.1 µM)
Bacillus subtilis
  MIC: 80 µg/mL (≈ 110 µM)
Bacillus cereus
  MIC: 80 µg/mL (≈ 110 µM)
Staphylococcus aureus
  MIC: 80 µg/mL (≈ 110 µM)

## O=C(NCCN(CCNC(=O)c1c(O)c(=O)ccn1CCO)CCNC(=O)c1c(O)c(=O)ccn1CCO)c1c(O)c(=O)ccn1CCO
Pseudomonas aeruginosa
  MIC: 40 µg/mL (≈ 58 µM)
Escherichia coli
  MIC: 40 µg/mL (≈ 58 µM)
Bacillus subtilis
  MIC: 40 µg/mL (≈ 58 µM)
Bacillus cereus
  MIC: 40 µg/mL (≈ 58 µM)
Staphylococcus aureus
  MIC: 80 µg/mL (≈ 116 µM)

## Cn1ccc(=O)c(O)c1C(=O)NCCN(CCNC(=O)c1c(O)c(=O)ccn1C)CCNC(=O)c1c(O)c(=O)ccn1C
[1]
  log K: 32.1
Pseudomonas aeruginosa
  MIC: 24 µg/mL (≈ 40 µM)
Escherichia coli
  MIC: 24 µg/mL (≈ 40 µM)
Bacillus subtilis
  MIC: 40 µg/mL (≈ 66.7 µM)
Bacillus cereus
  MIC: 40 µg/mL (≈ 66.7 µM)
Staphylococcus aureus
  MIC: 40 µg/mL (≈ 66.7 µM)

## COCCn1ccc(=O)c(O)c1C(=O)NCCN(CCNC(=O)c1c(O)c(=O)ccn1CCOC)CCNC(=O)c1c(O)c(=O)ccn1CCOC
[1]
  log K: 32.3
Pseudomonas aeruginosa
  MIC: 16 µg/mL (≈ 21.9 µM)
Escherichia coli
  MIC: 16 µg/mL (≈ 21.9 µM)
Bacillus subtilis
  MIC: 40 µg/mL (≈ 54.7 µM)
Bacillus cereus
  MIC: 80 µg/mL (≈ 109 µM)
Staphylococcus aureus
  MIC: 80 µg/mL (≈ 109 µM)

## O=C(O)CN(CCN(CC(=O)O)CC(=O)O)CCN(CC(=O)O)CC(=O)O [PENTETIC ACID]
[2]
  log K: 28.6
Pseudomonas aeruginosa
  MIC: 80 µg/mL (≈ 203 µM)
Escherichia coli
  MIC: 80 µg/mL (≈ 203 µM)
Bacillus subtilis
  MIC: 80 µg/mL (≈ 203 µM)
Bacillus cereus
  MIC: 80 µg/mL (≈ 203 µM)
Staphylococcus aureus
  MIC: 40 µg/mL (≈ 102 µM)

## O=C(O)CN(CCN(CC(=O)O)Cc1ccccc1O)Cc1ccccc1O
[2]
  log K: 40

## CCCCCCn1ccc(=O)c(O)c1C(=O)NCCN(CCNC(=O)c1c(O)c(=O)ccn1CCCCCC)CCNC(=O)c1c(O)c(=O)ccn1CCCCCC
Pseudomonas aeruginosa
  MIC: 40 µg/mL (≈ 49.4 µM)
Escherichia coli
  MIC: 80 µg/mL (≈ 98.8 µM)
Bacillus subtilis
  MIC: 40 µg/mL (≈ 49.4 µM)
Bacillus cereus
  MIC: 40 µg/mL (≈ 49.4 µM)
Staphylococcus aureus
  MIC: 40 µg/mL (≈ 49.4 µM)

— ChEMBL document CHEMBL3045728, “Synthesis, physico-chemical properties, and antimicrobial evaluation of a new series of iron(III) hexadentate chelators” (Med Chem Res, 2013)
